# Values of other authors, collected in patent US8822429B2, “Citicoline for the treatment of glaucoma and ocular hypertension” (Omikron Italia S.r.l., priority 2010, dated 2014).
# Settings: taken orally
compound,measurement,setting,value
"C[N+](C)(C)CCOP(=O)(O)OP(=O)([O-])OC[C@H]1O[C@@H](n2ccc(N)nc2=O)[C@H](O)[C@@H]1O [Citicoline, cytidine-5′-diphosphocholine]",excreted in the feces,,less than 1%
same,time of plasma peak after ingestion,first peak,1 h
same,"time of second, larger plasma peak",larger peak following the first,24 h
